Laboratory results reported in US20240261374A1, “PHARMACEUTICAL COMPOSITION AND KIT COMPRISING AN IMMUNOMODULATORY SUBSTANCE FOR TREATING DISEASES” (ellennbe GmbH, priority 2021, published 2024).

How the values were obtained:
skin = settings: healthy subjects, cited from earlier work
rheumatoid arthritis = test: Treatment of patients suffering from rheumatoid arthritis (CRP, tender/swollen joints, HAQ, patient's statement); assay type: in vivo, human
polymyalgia rheumatica = test: Treatment of patients suffering from polymyalgia rheumatica (CRP, tender/swollen joints, HAQ); assay type: in vivo, human; settings: Patient 14; 70 mg gradually reduced to 8 mg, increased again to 10 mg
From the text: The investigation and determination of the joint condition has been performed by a physician or rheumatologist. A tender joint (TJ) was pressure sensitive but not necessarily swollen. […] The amount of TJ and SJ was counted. A reduction in the amounts of TJ and/or SJ, respectively, was an indication for a reduction in inflammation, mitigation of the disease and an improvement of the patient's health condition.
The CRP (C-reactive protein) is the most important blood laboratory value for detecting and monitoring inflammation in the body. It was determined by a certified laboratory. A low CRP indicates the absence of an inflammation, while a high CRP is indicative for an inflammation to be present.
The functional disability index (HAQ) is the average of the highest numerical values reported for each of the eight different domains. High HAQ-scores correspond to a high degree of disability.
The treatment according to the present invention was performed by topically applying a heat pad on the upper side of the forearm as described in the Materials and Methods' section ‘Application of a heat pad’. The heat pad was applied for about 1 min to 2 min. The skin turned red and became warm and an increase in the skin temperature was palpable. About 30 see to 1 min after removing the heat pad the injections were performed intradermally within the skin of the red and warmed skin area. […]

[1] = test system: ankylosing spondylitis (Bechterew's disease); assay type: in vivo, human; settings: for Outcome of earlier treatment with TNF-α inhibitors (patient history): human, in vivo

For `COC(=O)c1cccnc1` [MN, methyl nicotinate], the “Perfusion response of the skin” value (skin; 50 μl of 20 mmol/l MN topically) is listed as “reproducible perfusion response” and the “Time course of the perfusion increase” value (skin; topical application of MN) is listed as “reaches a stable plateau phase after five minutes”.

For `CN(Cc1cnc2nc(N)nc(N)c2n1)c1ccc(C(=O)N[C@@H](CCC(=O)O)C(=O)O)cc1` [MTX, methotrexate], the “Adverse side effects / outcome of earlier treatment (patient history)” value (rheumatoid arthritis; human, in vivo) was “severe adverse effects (tendency to fibrosis in the lungs and sinusitis)”.

With `C[C@]12C=CC(=O)C=C1CC[C@@H]1[C@@H]2[C@@H](O)C[C@@]2(C)[C@H]1CC[C@]2(O)C(=O)CO` [prednisolone] the “Outcome of earlier treatment (patient history)” value (polymyalgia rheumatica) was “without complete remission of symptoms”.

In the case of `CC[C@@H]1CN(C(=O)NCC(F)(F)F)C[C@@H]1c1cnc2cnc3[nH]ccc3n12` [upadacitinib], the “Adverse side effects / outcome of earlier treatment (patient history)” value (rheumatoid arthritis; Patient 7, years 2008 to April 2021) is reported as “severe adverse effects (tendency to fibrosis in the lungs and sinusitis)”.

For Enbrel®, the “Outcome of earlier treatment with TNF-α inhibitors (patient history)” value [1] was “accompanied by strong adverse side effects”.

In the case of Remicade®: TNF-α inhibitor, the “Outcome of earlier treatment with TNF-α inhibitors (patient history)” value [1] is reported as “accompanied by strong adverse side effects”.

For “Simponi®: biologic, golimumab; TNF-α inhibitor”, the “Effect of earlier treatment with biologics (patient history)” value ([1]; Patient 11, ended more than a year before, lost their effect within half a year) was “had little effect from the outset” and the “Outcome of earlier treatment with TNF-α inhibitors (patient history)” value [1] was “accompanied by strong adverse side effects”.

With tocilizumab: IL-6 inhibitor the “Effectiveness of earlier or basic treatment (patient history)” value (rheumatoid arthritis; Patient 7, not the treatment of the invention) was “only partially efficient”.
